We go through 15 compounds from ChEMBL document CHEMBL1201862, “PubChem BioAssay data set” (2004).

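Where inhibition never reached the appropriate level, the endpoint shown equals the highest concentration tested. Otherwise, values were interpolated linearly from a five-concentration, 48-hour dose response in 96-well plates. GI50 is the concentration that inhibits growth by half.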 Calls of active or inactive are those of the source. No stated cut-off is given here; in the data, active = GI50 up to about 1.1 µM and inactive = higher.

Test systems include KM-20L2; SF-295; NCI-H23; SK-MEL-28; A498; KM12; RXF 393; EKVX; LOX IMVI; DMS-114; M19-MEL; Malme-3M; DU-145; MCF7; COLO 205; BT-549; MDA-N; DMS-273; HOP-18; MDA-MB-435.
Holding throughout (experiment): inhibition of tumour cell growth, NCI panel, 48 h

Take `c1ccc(N/N=C2\NN=C(c3ccccc3)CS2)cc1`: the GI50 with KM-20L2 was 6.46 µM (inactive); with SF-295, 7.46 µM (inactive); in the assay on NCI-H23, 17.9 µM (inactive); with SK-MEL-28 it was 16.3 µM (inactive); with A498, 10.8 µM (inactive); with KM12, 13.2 µM (inactive). In addition, the GI50 is 7.8 µM (inactive) with RXF 393, 12.4 µM (inactive) with EKVX and 4.39 µM (inactive) in the assay on LOX IMVI.

As for `O=C1NC2CCCCCC2C12CCCCC2` (stereo not drawn), the GI50 in the assay on KM-20L2, with SF-295, with NCI-H23, in the assay on DMS-114, in the assay with SK-MEL-28 and in the assay with A498 was > 100 µM (inactive) in each case. In addition, the GI50 in the assay with M19-MEL, in the assay on KM12, in the assay with RXF 393, in the assay on Malme-3M, with EKVX and with LOX IMVI was > 100 µM (inactive) in each case.

In the case of `CC1=NN(C(=O)c2ccccc2O)C(=O)/C1=C/c1ccc(O)cc1`, the GI50 in the assay on KM-20L2 was 36.5 µM (inactive); in the assay on SF-295, 0.379 µM (active); in the assay on NCI-H23, 0.568 µM (active); with DMS-114 it was 0.348 µM (active); in the assay on SK-MEL-28, 52.2 µM (inactive); in the assay on A498, 0.134 µM (active). Also, the GI50 in the assay with DU-145 was 0.492 µM (active); in the assay on MCF7, 0.382 µM (active); with COLO 205, 34.9 µM (inactive); in the assay with KM12, 0.298 µM (active); in the assay on RXF 393, 0.0601 µM (active); in the assay on BT-549, 0.279 µM (active). For the same compound, the GI50 was 0.431 µM (active) with Malme-3M, 0.316 µM (active) in the assay on MDA-N, 1.81 µM (inactive) with EKVX and 0.468 µM (active) in the assay on LOX IMVI.

With `CC(C)CC(N/C=C1/N=C(c2ccccc2)OC1=O)C(=O)O` (stereo not drawn), the GI50 in the assay with KM-20L2, in the assay on SF-295, in the assay on NCI-H23, in the assay with DMS-114, in the assay with SK-MEL-28 and with A498 was > 100 µM (inactive) each time. The GI50 with M19-MEL, with COLO 205, in the assay on KM12, in the assay with RXF 393, in the assay on Malme-3M and with EKVX was > 100 µM (inactive) throughout. Also, the GI50 with LOX IMVI and in the assay on DMS-273 was > 100 µM (inactive) throughout.

For the compound `CCOC(=O)C1CCn2c(nc3c(=O)n(C)c(=O)n(C)c32)S1` (stereo not drawn), the GI50 in the assay with KM-20L2, in the assay with SF-295, with NCI-H23, with HOP-18, with RXF 393 and with Malme-3M was > 100 µM (inactive) in each case. Also, the GI50 with EKVX, with LOX IMVI and in the assay with DMS-273 was > 100 µM (inactive) in each case.

For `CC1C(/C=C/c2ccoc2)ON2CCCC12` (stereo not drawn), the GI50 in the assay on KM-20L2, in the assay with SF-295, in the assay with NCI-H23, in the assay with SK-MEL-28, in the assay with HOP-18 and in the assay on M19-MEL was > 100 µM (inactive) each time. The GI50 in the assay on COLO 205 was > 100 µM (inactive); with RXF 393 it was 35.6 µM (inactive); in the assay on Malme-3M it was 54.2 µM (inactive); in the assay on EKVX, > 100 µM (inactive); with LOX IMVI, > 100 µM (inactive); in the assay on DMS-273, > 100 µM (inactive).

For the compound `COc1ccc(/C=C(\C2=NC(=O)CS2)c2nc3ccccc3[nH]2)cc1`, the GI50 in the assay with KM-20L2 was 49 µM (inactive); in the assay on SF-295, 37.2 µM (inactive); with NCI-H23, 69.7 µM (inactive); in the assay with DMS-114, 19.5 µM (inactive); in the assay on SK-MEL-28, 87.9 µM (inactive); with A498 it was 75.9 µM (inactive). In addition, the GI50 was 43.5 µM (inactive) in the assay with M19-MEL; > 100 µM (inactive) in the assay with COLO 205; 35.2 µM (inactive) with KM12; 3.13 µM (inactive) with RXF 393; 69.3 µM (inactive) in the assay on Malme-3M; 38.4 µM (inactive) with EKVX. In addition, the GI50 in the assay with DMS-273 is > 100 µM (inactive).

Consider `CN1c2ccccc2N(C(=O)c2ccc([N+](=O)[O-])cc2)C(CC(=O)O)c2cccn21` (stereo not drawn), for which the GI50 in the assay on KM-20L2, in the assay with SF-295, with NCI-H23, in the assay on DMS-114, in the assay on SK-MEL-28 and in the assay with A498 was > 100 µM (inactive) throughout. Besides, the GI50 in the assay with M19-MEL, in the assay on COLO 205, in the assay with KM12, in the assay on RXF 393, with Malme-3M and in the assay with EKVX was > 100 µM (inactive) throughout. Besides, the GI50 with LOX IMVI and in the assay on DMS-273 was > 100 µM (inactive) in each case.

In the case of `COC(=O)N1C=Cc2c(c(C)c3c([nH]c4ccccc43)c2C)C1C` (stereo not drawn), the GI50 was 12.2 µM (inactive) in the assay with KM-20L2; 13.7 µM (inactive) in the assay with SF-295; 17.7 µM (inactive) in the assay with NCI-H23; 19.4 µM (inactive) in the assay on DMS-114; 15.5 µM (inactive) with SK-MEL-28; 14.1 µM (inactive) in the assay on A498. Moreover, the GI50 was 20.8 µM (inactive) in the assay with M19-MEL; 18.7 µM (inactive) in the assay on COLO 205; 18.1 µM (inactive) in the assay on Malme-3M; 14 µM (inactive) in the assay on EKVX; 16.4 µM (inactive) in the assay with LOX IMVI; 18 µM (inactive) in the assay on DMS-273.

As to `C/C(=N/NC(=O)c1ccccc1S(N)(=O)=O)C(CN1CCCCC1)C(C1=C(O)C2C=CC=CC2OC1=O)c1ccccc1` (stereo not drawn), the GI50 is > 100 µM (inactive) in the assay with KM-20L2; 57.8 µM (inactive) with SF-295; > 100 µM (inactive) in the assay with NCI-H23; > 100 µM (inactive) in the assay on A498; 87.1 µM (inactive) with HOP-18; 47.6 µM (inactive) in the assay with M19-MEL. The GI50 in the assay with COLO 205 is 18.6 µM (inactive); in the assay with KM12, 97.3 µM (inactive); in the assay with RXF 393, 28.4 µM (inactive); in the assay on Malme-3M, 62.7 µM (inactive); in the assay on EKVX, > 100 µM (inactive); with LOX IMVI it was 74.5 µM (inactive).

On to `CCOC(=O)/C=C(\C(=O)OCC)n1ccc(=O)n(Cc2cnnn2CCCCOC(C)=O)c1=O`, for which the GI50 with SF-295 is 27.4 µM (inactive); in the assay with NCI-H23, 13.2 µM (inactive); in the assay on SK-MEL-28, 6 µM (inactive); in the assay on A498, 21.1 µM (inactive); in the assay with DU-145, 18.6 µM (inactive); with MCF7, 4.79 µM (inactive). Moreover, the GI50 was 6.85 µM (inactive) with MDA-MB-435; 1.3 µM (inactive) with COLO 205; 15.9 µM (inactive) with KM12; 0.697 µM (active) with RXF 393; 16.4 µM (inactive) with BT-549; 2.06 µM (inactive) in the assay with Malme-3M. The GI50 is 22.5 µM (inactive) with MDA-N, 11 µM (inactive) in the assay with EKVX and 4.09 µM (inactive) in the assay on LOX IMVI.

Turning to `COC(=O)c1s/c(=N\C(=S)N(C)C)n(-c2ccccc2)c1C(=O)OC`, the GI50 was > 100 µM (inactive) in the assay with KM-20L2; > 100 µM (inactive) with SF-295; > 100 µM (inactive) in the assay on NCI-H23; 70 µM (inactive) in the assay on DMS-114; > 100 µM (inactive) in the assay on SK-MEL-28; > 100 µM (inactive) in the assay on A498. Also, the GI50 in the assay with M19-MEL, in the assay with COLO 205, in the assay with KM12, with RXF 393, in the assay with Malme-3M and with EKVX was > 100 µM (inactive) each time. In addition, the GI50 with LOX IMVI and in the assay on DMS-273 was > 100 µM (inactive) throughout.

With `COC(C(O)c1ccc2c(c1)OCO2)P(=O)(c1ccccc1)c1ccccc1` (stereo not drawn), the GI50 in the assay with SF-295 was > 10 µM (inactive); with NCI-H23, 30.8 µM (inactive); in the assay with DMS-114, 77.3 µM (inactive); in the assay with SK-MEL-28 it was > 100 µM (inactive); in the assay with A498, 75.2 µM (inactive); in the assay on M19-MEL it was > 100 µM (inactive). In addition, the GI50 with KM12 was > 100 µM (inactive); in the assay on RXF 393, 81.7 µM (inactive); with Malme-3M it was 16 µM (inactive); in the assay on EKVX it was > 100 µM (inactive); with DMS-273, > 100 µM (inactive).

`O=C(CCC(=O)OCC1OC(O)(CC2OC(CO)C(O)C(O)C2O)C(O)C1O)OCc1ccccc1` (stereo not drawn): the GI50 in the assay with SF-295, with NCI-H23, in the assay with SK-MEL-28, in the assay on A498, in the assay on DU-145 and with MCF7 was > 100 µM (inactive) in each case. Further, the GI50 in the assay with MDA-MB-435, in the assay on COLO 205, in the assay on KM12, with RXF 393, in the assay with BT-549 and in the assay with Malme-3M was > 100 µM (inactive) in each case. In addition, the GI50 in the assay on MDA-N, with EKVX and in the assay with LOX IMVI was > 100 µM (inactive) throughout.

In the case of `COc1cccc(C(=O)C#Cc2cnc(OC)nc2OC)c1`, the GI50 with SF-295 is 14.2 µM (inactive); with NCI-H23, 1.98 µM (inactive); with SK-MEL-28, 2.04 µM (inactive); in the assay with A498 it was 8.69 µM (inactive); in the assay with DU-145, 5.87 µM (inactive); in the assay on MCF7, 0.126 µM (active). Besides, the GI50 with MDA-MB-435 is 1.86 µM (inactive); in the assay with COLO 205, 1.77 µM (inactive); with KM12, 3.94 µM (inactive); with RXF 393 it was 0.331 µM (active); with BT-549 it was 0.306 µM (active); in the assay with Malme-3M, 1.38 µM (inactive). The GI50 with MDA-N was 1.49 µM (inactive); with EKVX, 1.72 µM (inactive); with LOX IMVI, 0.119 µM (active).
